# Laboratory results: publication PMC6791019, “(−)-Epigallocatechin-3-gallate derivatives combined with cisplatin exhibit synergistic inhibitory effects on non-small-cell lung cancer cells” (Cancer Cell International, 2019)
# Tests used:
# [1] = Transport across Caco-2 cell monolayers; type: in vitro ADME, human; conditions: human; for Papp A→B at 30 min, 50 μg/mL / Papp A→B at 60 min, 50 μg/mL / Papp B→A at 30 min, 50 μg/mL / Papp B→A at 60 min, 50 μg/mL: Caco-2, 50 μg/mL; for Papp A→B at 30 min, 50 μg/mL / Papp A→B at 60 min, 50 μg/mL: apical to basolateral; for Papp B→A at 30 min, 50 μg/mL / Papp B→A at 60 min, 50 μg/mL: basolateral to apical; for Papp: Caco-2, summary of Table 1, read-out: apparent permeability coefficients (Papp), range over directions and times
# Procedure: (§1) Caco-2 cells were grown as epithelial monolayers, seeded onto fibrillar collagen-coated polyethylene terephthalate (PET) Corning transwell inserts (1.12 cm^2) with a pore size of 3 μm at a density of 2.0 × 10^5 cells/insert, and incubated at 37 °C in an atmosphere of 5% CO2 and 95% relative humidity in complete DMEM. The medium was replaced every 2 days with 0.5 mL medium in the apical (AP) side and 1.5 mL in the basolateral (BL) side over a period of 21 days. The integrity of the cell monolayer was determined by measuring the TEER (transepithelial electrical resistance) using an epithelial voltohmmeter (EVOM). The TEER values for each monolayer were measured every 2 days until they exceeded 350 Ω cm^2. To ensure the integrity of the Caco-2 monolayers, the TEER values were monitored before and after the experiments.
# (§2) To measure the transport of EGCG and compound 3 across the Caco-2 cell monolayer, both sides of the transwell were equilibrated for 30 min with warm Hank’s balanced salt solution (HBSS). The transport buffer containing EGCG and compound 3 was added to either the apical (0.5 mL) or the basolateral (1.5 mL) side of the insert, while the receiving compartment contained the corresponding volume of transport buffer. After incubation for 30 or 60 min, 100 μL samples were taken from the receiving chamber and immediately replenished with an equal volume of pre-warmed HBSS. The samples were acidified with an equal volume of 5% formic acid and then frozen until LC–MS analysis.
# (§3) The apparent permeability coefficients (Papp) of the compounds were calculated using the following equation: Papp=dQ/dt×1/A·C0, where dQ/dt is the amount of solute transported across the Caco-2 barrier in time dt, C0 is the solute concentration in the apical compartment at time zero, and A is the cross-sectional area of the epithelium in contact with the apical solution.
# NCI-H441 xenograft = NCI-H441 xenograft model in nude mice; type: in vivo, BALB-C/nude mice; conditions: for tumor growth compared with the control: compound 3 200 mg/kg per day, cDDP 2 mg/kg per 2 days, i.p., nude mice
# Procedure: Twenty-four male BALB-C/nude mice were purchased from the Cavens Lab Animal (Changzhou, China). The mice were subcutaneously injected in the dorsal with NCI-H441 cells (4 × 10^6/0.2 mL PBS per mouse). The mice were randomly divided into four groups, including control, compound 3, cDDP, and compound 3 plus cDDP (n = 6, per group). The mice were treated with compound 3 (200 mg/kg per day) and cDDP (2 mg/kg per 2 days) alone or in combination. All drugs were given through intra-peritoneal injection. Tumour size was measured once every 2 days with a calipre (volume mm^3 = length × width × width/2). Body weight was recorded once every 2 days. After there weeks of treatment, all mice were euthanized by cervical dislocation and the tumors were excised into formalin, and portion of the tumor fresh frozen in liquid nitrogen for further processing and analysis.
# Three micrometer sections were cut, deparaffinized in xylenes, rehydrated in ethanol, and washed in phosphate-buffered saline. The antigen was retrieved at 95 °C for 20 min in 0.01 M citrate buffer (pH 6.0). Then incubated with primary antibodies overnight at 4 °C, followed by incubation with the secondary antibody at RT for 1 h. The immunostaining was performed using DAB, and counterstained with hematoxylin.
# NCI-H441 cells [2] = assay: Western blotting of cell cycle and apoptosis proteins; type: cell-based, human; conditions: NCI-H441, western blot, cDDP alone
# Procedure: (§4) Samples containing equal amounts of proteins as indicated in the text were resolved by SDS polyacrylamide gel electrophoresis and transferred to PVDF membranes. The membranes were blocked with 5% BSA at room temperature for 1 h and then probed with primary antibodies overnight at 4 °C and incubated with the HRP-conjugated secondary antibodies for 1 h at room temperature. HRP was detected using the Pro-light HRP Chemiluminescent Kit (Tiangen Biotech, Beijing, China) and FluorChem E System (ProteinSimple, Santa Clara, CA, United States).
# A549 cells = assay: MTT cell proliferation assay, A549; type: cell-based, human; conditions: 0-150 µM, 48 h
# Procedure: (§5) The effects of the EGCG derivatives on the survival of NSCLC cells were determined using the MTT assay. A549, NCI-H441, and NCI-H1975 cells were seeded in 96-well plates (3 × 10^4 cells/well) and then treated with one of the EGCG derivatives alone (0, 30, 60, 90, 120, or 150 µM), cDDP alone (12 µM), or 12 μM cDDP plus one of the EGCG derivatives (100 µM) for 48 h. MTT was then added to the cells and the plates were incubated for a further 4 h. After removal of the culture medium, the produced MTT formazan crystals were dissolved with 150 µL DMSO and measured at 492 nm using a microplate reader. The percentage of inhibition was calculated as follows: inhibition ratio (IR, %) = (1 − OD(sample)/OD(control)) × 100%. The experiments were carried out in triplicate, and the IC50 (the concentration of drug that inhibits cell growth by 50%) values were determined.
# Caco-2 cell monolayers = assay: Transport across Caco-2 cell monolayers; type: in vitro ADME, human; conditions: Caco-2, 50 µg/mL, A→B
# Procedure: as §1, §2, §3
# NCI-H1975 cells = assay: MTT cell proliferation assay, NCI-H1975; type: cell-based, human; conditions: 0-150 µM, 48 h
# Procedure: as §5
# NCI-H441 cells [3] = assay: Annexin V-FITC/PI apoptosis assay by flow cytometry; type: cell-based, human; conditions: NCI-H441, 48 h
# Procedure: Cell apoptosis was quantified using an annexin V/propidium iodide (PI) detection kit (BD Biosciences, PA, USA) and flow cytometry. Cells (5 × 10^5/well) were plated in six-well dishes and then treated with the EGCG derivatives with or without cDDP. After the treatment, the collected cells were incubated in 100 µL of binding buffer and 5 µL of FITC annexin V and 10 µL of PI were added to the suspension. The mixtures were gently vortexed and then incubated for 15 min at room temperature in the dark before performing the flow cytometry measurements (BD FACSCalibur) within 1 h.
# [4] = system: EGFR signaling pathway in NCI-H441 cells; assay: Western blotting of EGFR signaling pathway proteins; type: cell-based, human; conditions: NCI-H441, western blot after 12 h
# Procedure: as §4
# NCI-H441 cells [5] = assay: MTT cell proliferation assay, NCI-H441; type: cell-based, human; conditions: 0-150 µM, 48 h
# Procedure: as §5
# NCI-H441 cells [6] = assay: Cell cycle analysis by PI staining and flow cytometry; type: cell-based, human; conditions: NCI-H441, 0, 50, 100, 150 μM
# Procedure: Aliquots of 5 × 10^5 cells were harvested, washed with phosphate-buffered saline (PBS), and then fixed in 70% ethanol at 4 °C overnight. After fixation, the cells were washed twice with cold PBS and stained in binding buffer containing 1 µg/mL of propidium iodide (BD Biosciences) and RNase for 0.5 h. The samples were then analyzed by flow cytometry (BD FACSCalibur).
SMILES,"Papp A→B at 30 min, 50 μg/mL [1]","Papp A→B at 60 min, 50 μg/mL [1]","Papp B→A at 30 min, 50 μg/mL [1]","Papp B→A at 60 min, 50 μg/mL [1]",Papp [1],tumor growth compared with the control (NCI-H441 xenograft),"levels of PCNA, p53, p21, cyclin D1 and cyclin E (NCI-H441 cells [2])",proliferation of A549 cells (A549 cells),"transepithelial transport rate, apical to basolateral, fold higher than EGCG (Caco-2 cell monolayers)",proliferation of NCI-H1975 cells (NCI-H1975 cells),number of apoptotic cells compared to untreated control (NCI-H441 cells [3]),nude mouse body weight compared with the control group (NCI-H441 xenograft; compound 3 200 mg/kg per day i.p.),"P-EGFR, P-AKT and P-ERK levels [4]",proliferation of NCI-H441 cells (NCI-H441 cells [5]),"cell cycle distribution, effect of increasing doses (NCI-H441 cells [6])"
"O=C(O[C@@H]1Cc2c(O)cc(O)cc2O[C@@H]1c1cc(O)c(O)c(O)c1)c1cc(O)c(O)c(O)c1 [EGCG, (−)-epigallocatechin-3-gallate]",0.189 ×10⁻⁶ cm/s,0.32 ×10⁻⁶ cm/s,0.89 ×10⁻⁶ cm/s,0.083 ×10⁻⁶ cm/s,0.083 to 0.914 ×10⁻⁶ cm/s,–,–,–,–,–,–,–,–,–,–
"[NH2][Pt]([NH2])([Cl])[Cl] [cDDP, cisplatin]",–,–,–,–,–,reduced tumor growth,minimal effects,–,–,–,–,–,–,–,–
"O=C(O[C@@H]1Cc2c(OCc3cnnn3[C@@H]3O[C@H](CO)[C@@H](O)[C@H](O)[C@H]3O)cc(O)cc2O[C@@H]1c1cc(O)c(O)c(O)c1)c1cc(O)c(O)c(O)c1 [compound 3, (2R,3R)-7-Hydroxy-5-((1-((2R,3R,4S,5S,6R)-3,4,5-trihydroxy-6-(hydroxymethyl)tetrahydro-2H-pyran-2-yl)-1H-1,2,3-triazol-5-yl)methoxy)-2-(3,4,5-trihydroxyphenyl)chroman-3-yl 3,4,5-trihydroxybenzoate]",0.914 ×10⁻⁶ cm/s,0.41 ×10⁻⁶ cm/s,0.83 ×10⁻⁶ cm/s,0.39 ×10⁻⁶ cm/s,0.083 to 0.914 ×10⁻⁶ cm/s,reduced tumor growth,–,the same effect was not observed,4.9 fold,the same effect was not observed,significantly increased in a concentration-dependent manner,did not reduce the nude mouse body weight,effectively inhibited these phosphorylation proteins in a dose-dependent manner,substantial dose-dependent growth inhibition,increased the proportion of cells in the S phase in a dose-dependent manner
